# Key:
# [1] = molecular target: tyrosine kinases (PTK) in colon carcinoma PDX lysates; assay: PamChip tyrosine kinase (PTK) activity profiling of colon carcinoma PDX tumor lysates; set-up: species or system human PDX grown in mice; Kinase score: scale not given here; settings: for Kinase statistic: value<0 = higher activity in vehicle-treated tumors; for Kinase score: vehicle-treated vs KcAng(1-7)-treated tumors
# Method: (§1) In particular, to determine the effect of treatment on kinase activities, Tyrosine (PTK) and Serine/Threonine (STK) PamChip®-based kinase activity profiling in lysates from colon carcinoma PDX was performed by PamGene International B.V., The Netherlands.
# (§2) PamGene® kinase activity profiles were measured for vehicle-treated colon cancer PDX tumors (control, n=10) and KcAng(1-7)-treated colon cancer PDX tumors (treatment, n=10).
# (§3) Frozen tissues of tumor samples were processed to make lysates followed by determination of tyrosine kinase and serine/threonine kinase activity profiles. Datasets were analyzed by PamGene bioinformatics toolbox, for example by using PamGene's method called Upstream Kinase Analysis.
# (§4) Kinase Score was used for ranking kinases based on their significance and specificity in terms of the set of peptides used for the corresponding kinase. Kinase statistics indicates the overall change of the peptide set that represents the kinase. Kinase statistics value<0 indicates higher activity in vehicle-treated tumors.
# [2] = molecular target: serine/threonine kinases (STK) in colon carcinoma PDX lysates; assay: PamChip serine/threonine kinase (STK) activity profiling of colon carcinoma PDX tumor lysates; set-up: species or system human PDX grown in mice; Kinase score: scale not given here; settings: for Kinase statistic: value<0 = higher activity in vehicle-treated tumors; for Kinase score: vehicle-treated vs KcAng(1-7)-treated tumors
# Method: as §1, §2, §3, §4
substance,measurement,setting,value
Lys-Asp-Arg-Val-Abu/Ala-Ile-His-Abu/Ala (KDRVAIHA; not fully specified; cyclic thioether (Abu/Ala bridge); VARIANT (5)..(5) /replace=“Abu”; VARIANT (8)..(8) /replace=“Abu”; SITE (1)..(8) /note=“Variant residues given in the sequence have no preference with respect to those in the annotations for variant positions”) [KcAng(1-7)],Kinase statistic,[1]; kinase CCK4/PTK7,−0.58
same,Kinase score,[1]; kinase CCK4/PTK7,2.23
same,Kinase statistic,[1]; kinase EPHA1,−0.52
same,Kinase score,[1]; kinase EPHA1,2.01
same,Kinase statistic,[1]; kinase EPHA2,−0.50
same,Kinase score,[1]; kinase EPHA2,1.96
same,Kinase statistic,[1]; kinase EPHA3,−0.55
same,Kinase score,[1]; kinase EPHA3,2.38
same,Kinase statistic,[1]; kinase EPHA4,−0.52
same,Kinase score,[1]; kinase EPHA4,2.55
same,Kinase statistic,[1]; kinase EPHA8,−0.51
same,Kinase score,[1]; kinase EPHA8,1.71
same,Kinase statistic,[1]; kinase FER,−0.51
same,Kinase score,[1]; kinase FER,2.49
same,Kinase statistic,[1]; kinase FES,−0.47
same,Kinase score,[1]; kinase FES,1.84
same,Kinase statistic,[1]; kinase FGFR1,−0.49
same,Kinase score,[1]; kinase FGFR1,2.39
same,Kinase statistic,[1]; kinase FGFR2,−0.47
same,Kinase score,[1]; kinase FGFR2,1.82
same,Kinase statistic,[1]; kinase FGFR3,−0.48
same,Kinase score,[1]; kinase FGFR3,1.89
same,Kinase statistic,[1]; kinase HER2,−0.47
same,Kinase score,[1]; kinase HER2,2.68
same,Kinase statistic,[1]; kinase HER4,−0.47
same,Kinase score,[1]; kinase HER4,2.11
same,Kinase statistic,[1]; kinase JAK1~B,−0.49
same,Kinase score,[1]; kinase JAK1~B,1.70
same,Kinase statistic,[1]; kinase LMR1,−0.71
same,Kinase score,[1]; kinase LMR1,4.10
same,Kinase statistic,[1]; kinase MER,−0.44
same,Kinase score,[1]; kinase MER,1.74
same,Kinase statistic,[1]; kinase MET,−0.46
same,Kinase score,[1]; kinase MET,2.16
same,Kinase statistic,[1]; kinase TEC,−0.44
same,Kinase score,[1]; kinase TEC,1.79
same,Kinase statistic,[1]; kinase TXK,−0.46
same,Kinase score,[1]; kinase TXK,2.05
same,Kinase statistic,[1]; kinase TYRO3/SKY,−0.45
same,Kinase score,[1]; kinase TYRO3/SKY,2.03
same,Kinase statistic,[2]; kinase CDC2/CDK1,−0.80
same,Kinase score,[2]; kinase CDC2/CDK1,3.79
same,Kinase statistic,[2]; kinase CDK2,−0.88
same,Kinase score,[2]; kinase CDK2,5.40
same,Kinase statistic,[2]; kinase CDK4,−0.80
same,Kinase score,[2]; kinase CDK4,3.11
same,Kinase statistic,[2]; kinase CDK5,−0.80
same,Kinase score,[2]; kinase CDK5,3.11
same,Kinase statistic,[2]; kinase CDK6,−0.80
same,Kinase score,[2]; kinase CDK6,3.10
same,Kinase statistic,[2]; kinase CDK9,−0.83
same,Kinase score,[2]; kinase CDK9,4.19
same,Kinase statistic,[2]; kinase CDKL2,−0.98
same,Kinase score,[2]; kinase CDKL2,4.62
same,Kinase statistic,[2]; kinase CDKL5,−0.82
same,Kinase score,[2]; kinase CDKL5,4.21
same,Kinase statistic,[2]; kinase ERK1,−0.82
same,Kinase score,[2]; kinase ERK1,4.44
same,Kinase statistic,[2]; kinase ERK2,−0.79
same,Kinase score,[2]; kinase ERK2,3.84
same,Kinase statistic,[2]; kinase ERK5,−0.90
same,Kinase score,[2]; kinase ERK5,5.40
same,Kinase statistic,[2]; kinase JNK1,−0.77
same,Kinase score,[2]; kinase JNK1,3.92
same,Kinase statistic,[2]; kinase JNK2,−0.77
same,Kinase score,[2]; kinase JNK2,3.67
same,Kinase statistic,[2]; kinase JNK3,−0.77
same,Kinase score,[2]; kinase JNK3,4.08
same,Kinase statistic,[2]; kinase MAPK14,−0.79
same,Kinase score,[2]; kinase MAPK14,3.54
same,Kinase statistic,[2]; kinase PCTAIRE2,−0.74
same,Kinase score,[2]; kinase PCTAIRE2,3.44
same,Kinase statistic,[2]; kinase RAF1,−0.74
same,Kinase score,[2]; kinase RAF1,2.97
same,Kinase statistic,[2]; kinase RSK3,−0.75
same,Kinase score,[2]; kinase RSK3,3.42
same,Kinase statistic,[2]; kinase p38[beta],−0.84
same,Kinase score,[2]; kinase p38[beta],4.14
same,Kinase statistic,[2]; kinase p38[gamma],−0.82
same,Kinase score,[2]; kinase p38[gamma],3.47

# Source: patent publication US20220257698A1, “ANGIOTENSIN TYPE 2 (AT2) RECEPTOR AGONISTS FOR USE IN THE TREATMENT OF CANCER” (LANTHIOPEP B.V., priority 2019, published 2022)
